Experimental data published in patent US20240408093A1, “HETEROBIFUNCTIONAL COMPOUNDS AND THEIR USE IN TREATING DISEASE” (HALDA THERAPEUTICS OPCO, INC., priority 2022, published 2024).

Assays:
[1] = molecular target: T1, EGFR WT (amino acids 669-1011) (Homo sapiens, UniProt P00533); assay: KdELECT binding assay, EGFR WT
T1 construct: purchased Eurofins Discovery (KdELECT); host or cells: bacteria (E. coli BL21-derived, T7 phage)
Description: Exemplary compounds were tested for ability to bind to EGFR WT (amino acids 669-1011, Accession Number NP_005219.2) or EGFR T790M, L858R (amino acids 669-1011 Accession Number NP_005219.2) expressed from bacteria or mammalian cells, respectively. Compounds were tested using the KdELECT assay at Eurofins Discovery.
Kinase-tagged T7 phage strains were prepared in an E. coli host derived from the BL21 strain. E. coli were grown to log-phase and infected with T7 phage and incubated with shaking at 32° C. until lysis. The lysates were centrifuged and filtered to remove cell debris. The remaining kinases were produced in HEK-293 cells and subsequently tagged with DNA for qPCR detection. Streptavidin-coated magnetic beads were treated with biotinylated small molecule ligands for 30 minutes at room temperature to generate affinity resins for kinase assays. The liganded beads were blocked with excess biotin and washed with blocking buffer (SeaBlock (Pierce), 1% BSA, 0.05% Tween 20, 1 mM DTT) to remove unbound ligand and to reduce non-specific binding. Binding reactions were assembled by combining kinases, liganded affinity beads, and test compounds in 1x binding buffer (20% SeaBlock, 0.17× PBS, 0.05% Tween 20, 6 mM DTT). Test compounds were prepared as 111× stocks in 100% DMSO. Kd values were determined using an 11-point 3-fold compound dilution series with three DMSO control points. All compounds for Kd measurements are distributed by acoustic transfer (non-contact dispensing) in 100% DMSO. The compounds were then diluted directly into the assays such that the final concentration of DMSO was 0.9%. All reactions performed in polypropylene 384-well plate. Each was a final volume of 0.02 mL. The assay plates were incubated at room temperature with shaking for 1 hour and the affinity beads were washed with wash buffer (1× PBS, 0.05% Tween 20). The beads were then re-suspended in elution buffer (1× PBS, 0.05% Tween 20, 0.5 μM nonbiotinylated affinity ligand) and incubated at room temperature with shaking for 30 minutes. The kinase concentration in the eluates was measured by qPCR.

[2] = molecular target: T2, EGFR T790M/L858R kinase domain (Homo sapiens, UniProt P00533, L858R/T790M); assay: EGFR cellular target engagement assay (HEK293 cells stable for EGFR T790M, L858R); format: cell-based; conditions: 6 hours, read-out: TE50 (the source's name)
T2 construct: EGFR (amino acids 696-1022, T790M, L858R); expressed in transfected cells; host or cells: HEK293, lentiviral transduction, puromycin selection
Description: HEK293 cells were cultured in DMEM (Gibco 11995), supplemented with 10% Heat-inactivated FBS (Gibco A38400-01) and 1% Penicillin/Streptomycin (Gibco 15140-122) at 37° C. with 5% CO2 in a humidified tissue culture incubator. Cells were made stable for EGFR (amino acids 696-1022, T790M, L858R) by lentiviral transduction, followed by selection with 1 μg/ml Puromycin Dihydrochloride (Thermo A1113803). Cells were seeded at 30,000 cells/ml in 0.1 ml of complete media in Poly-D-lysine-treated 96-well plates and incubated overnight. Cells were treated with increasing concentrations of compound and let incubate at 37C and 5% CO2 for 6 hours, after which media was aspirated, washed with 1×PBS and cells were lysed in RIPA Lysis and Extraction Buffer (Thermo 89901) supplemented with 5 mM MgCl2, Protease and Phosphatase inhibitor cocktail (Thermo 1861281), and Universal Nuclease (Thermo 88700). Plates with RIPA were shaken at 4° C. at 600 rpm for 15 min. After shaking samples, they were collected and spun down at 21,000 g for 15 min at 4° C. Following centrifugation, […] of lysate was added to Laemmli Sample Buffer (Bio-Rad 1610747) plus 10% beta-mercaptoethanol, boiled for 15 minutes at 65° C. and loaded onto 4-20% Mini-PROTEAN TGX™ Precast Protein Gels (Bio-Rad). Protein was transferred to a nitrocellulose membrane (Thermo LC2000) using the iBlot 2 Dry Blotting System (Thermo). After transfer, membranes were washed in 1× TBST (Bioland Scientific LLC TBST0103) 3× for 5 min. Following the wash, blocking buffer (Rockland MB-070) was added for 1 hour at room temperature. Primary antibodies against EGFR (Cell Signaling Technology 3197) and actin (Cell Signaling Technology 3700S) were added overnight at 4° C. Membranes were then washed again 3× for 5 min in 1× TBST. Secondary antibodies (LI-COR 926-68072 and 926-68073) were added and shaken for 1 hr at room temperature. Membranes were then washed 3× for 5 min in 1×TBST and developed. Membranes were placed on an Odyssey imager (LI-COR).

T2 sequence (P00533 696-1022 T790M/L858R): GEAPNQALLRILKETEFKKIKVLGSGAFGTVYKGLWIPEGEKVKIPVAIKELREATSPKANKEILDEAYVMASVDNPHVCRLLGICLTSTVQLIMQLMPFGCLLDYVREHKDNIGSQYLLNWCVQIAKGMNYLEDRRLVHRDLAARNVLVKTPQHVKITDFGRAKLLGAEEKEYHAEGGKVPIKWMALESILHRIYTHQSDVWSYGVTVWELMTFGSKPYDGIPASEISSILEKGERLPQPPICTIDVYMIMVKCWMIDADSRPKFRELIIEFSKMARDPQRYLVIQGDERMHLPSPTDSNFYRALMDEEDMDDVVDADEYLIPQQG
T1 sequence (P00533 669-1011): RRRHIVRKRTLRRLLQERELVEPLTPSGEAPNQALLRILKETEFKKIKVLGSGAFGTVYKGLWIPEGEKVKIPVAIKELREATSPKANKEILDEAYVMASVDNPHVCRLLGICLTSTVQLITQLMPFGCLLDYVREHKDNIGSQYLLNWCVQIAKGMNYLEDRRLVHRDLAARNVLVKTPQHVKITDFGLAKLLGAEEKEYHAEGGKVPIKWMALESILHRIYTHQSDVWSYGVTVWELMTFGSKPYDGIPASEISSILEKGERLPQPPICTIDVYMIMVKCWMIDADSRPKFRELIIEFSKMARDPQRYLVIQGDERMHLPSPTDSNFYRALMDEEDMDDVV

Kd [1]	EC50 [2]	Structure (SMILES)
> 2500 nM	5000 to 10000 nM	C=C(CN(C(=O)NCc1ccc2c(c1)CN(C1CCC(=O)NC1=O)C2=O)c1ccc(C)c(Cl)c1)C(=O)Nc1cc(Nc2ncc(-c3cn(C)c4ccccc34)cn2)c(OC)cc1N(C)CCN(C)C (stereo not drawn) [Compound I-42]
50 to 500 nM	–	C=C(COc1cc(Cl)cc(NC(=O)NCc2ccc3c(c2)CN(C2CCC(=O)NC2=O)C3=O)c1)C(=O)N[C@@H]1CN(c2nc(Nc3cn(C)nc3OC)c3ncn(C)c3n2)C[C@H]1F (stereo partly drawn) [Compound I-45]
< 50 nM	250 to 5000 nM	C=C(COc1ccc(Cl)cc1NC(=O)NCc1ccc2c(c1)CN(C1CCC(=O)NC1=O)C2=O)C(=O)N[C@@H]1CN(c2nc(Nc3cn(C)nc3OC)c3ncn(C)c3n2)C[C@H]1F (stereo partly drawn) [Compound I-47]
> 2500 nM	250 to 5000 nM	C=C(COc1cc(Cl)cc(NC(=O)NCc2ccc3c(c2)CN(C2CCC(=O)NC2=O)C3=O)c1)C(=O)N1C[C@H](COc2nc(Nc3cnn(C)c3)nc3[nH]cc(Cl)c23)[C@@H](OC)C1 (stereo partly drawn) [Compound I-54]
> 2500 nM	> 10000 nM	C=C(COc1cc(Cl)cc(NC(=O)NCc2ccc3c(c2)CN(C2CCC(=O)NC2=O)C3=O)c1)C(=O)Nc1cccc(Oc2nc(Nc3ccc(N4CCN(C)CC4)cc3)nc3ccsc23)c1 (stereo not drawn) [Compound I-55]
< 50 nM	250 to 5000 nM	C=C(COc1cc(Cl)cc(NC(=O)NCc2ccc3c(c2)CN(C2CCC(=O)NC2=O)C3=O)c1)C(=O)Nc1cc(Nc2nccc(-c3cn(C)c4ccccc34)n2)c(OC)cc1N(C)CCN(C)C (stereo not drawn) [Compound I-59]
50 to 500 nM	< 250 nM	C=C(COc1c(Cl)cccc1NC(=O)NCc1ccc2c(c1)CN(C1CCC(=O)NC1=O)C2=O)C(=O)Nc1cc(Nc2nccc(-c3cn(C)c4ccccc34)n2)c(OC)cc1N(C)CCN(C)C (stereo not drawn) [Compound I-60]
500 to 2500 nM	> 10000 nM	C=C(COc1cc(Cl)cc(NC(=O)NCc2ccc3c(c2)CN(C2CCC(=O)NC2=O)C3=O)c1)C(=O)Nc1cccc(-c2cccc3cnc(Nc4ccc(N5CCN(CCO)CC5)c(F)c4F)nc23)c1 (stereo not drawn) [Compound I-61]
–	250 to 5000 nM	C=C(COc1c(Cl)cccc1NC(=O)NCc1ccc2c(c1)CN(C1CCC(=O)NC1=O)C2=O)C(=O)N[C@@H]1CN(c2nc(Nc3cn(C)nc3OC)c3ncn(C)c3n2)C[C@H]1F (stereo partly drawn) [Compound I-69]
–	> 10000 nM	C=C(CN(C(=O)NCc1ccc2c(c1)CN(C1CCC(=O)NC1=O)C2=O)c1ccc(C)c(Cl)c1)C(=O)Nc1cccc(Oc2nc(Nc3ccc(N4CCN(C)CC4)cc3)nc3ccsc23)c1 (stereo not drawn) [Compound I-70]
–	> 10000 nM	C=C(CN(C(=O)NCc1ccc2c(c1)CN(C1CCC(=O)NC1=O)C2=O)c1ccc(C)c(Cl)c1)C(=O)N1C[C@@H](COc2nc(Nc3cnn(C)c3)nc3[nH]cc(Cl)c23)[C@H](OC)C1 (stereo partly drawn) [Compound I-71]
> 2500 nM	< 250 nM	C=C(CN1C(=O)CCC(N2Cc3cc(CNC(=O)Nc4ccc(C)c(Cl)c4)ccc3C2=O)C1=O)C(=O)Nc1cc(Nc2ncc(-c3cn(C)c4ccccc34)cn2)c(OC)cc1N(C)CCN(C)C (stereo not drawn) [Compound I-87]
> 2500 nM	> 10000 nM	C=C(COC(=O)n1c(CNc2nc(N3CCNCC3)nc3c(Br)cnn23)nc2cc(C)ccc21)C(=O)N1C[C@H](COc2nc(Nc3cnn(C)c3)nc3[nH]cc(Cl)c23)[C@@H](OC)C1 [Compound V-4]
50 to 500 nM	250 to 5000 nM	C=C(COc1cc(-c2ccccn2)ccc1CNc1nc(N[C@H](CC)CO)nc2c1ncn2C(C)C)C(=O)N[C@@H]1CN(c2nc(Nc3cn(C)nc3OC)c3ncn(C)c3n2)C[C@H]1F [II-183]
> 2500 nM	> 10000 nM	C=C(COC(=O)N1CCN(c2nc(NCc3nc4cc(C)ccc4[nH]3)n3ncc(Br)c3n2)CC1)C(=O)N1C[C@H](COc2nc(Nc3cnn(C)c3)nc3[nH]cc(Cl)c23)[C@@H](OC)C1 [II-185]
< 50 nM	< 250 nM	C=C(CN1CCN(c2nc(NCc3nc4cc(C)ccc4[nH]3)n3ncc(Br)c3n2)CC1)C(=O)Nc1cc(Nc2nccc(-c3cn(C)c4ccccc34)n2)c(OC)cc1N(C)CCN(C)C [II-188]
> 2500 nM	> 10000 nM	C=C(CN1CCN(c2nc(NCc3nc4cc(C)ccc4[nH]3)n3ncc(Br)c3n2)CC1)C(=O)Nc1cccc(-c2cccc3cnc(Nc4ccc(N5CCN(CCO)CC5)c(F)c4F)nc23)c1 [II-191]
